Measured values: PubChem BioAssay AID248 (DTP/NCI, 2004)
Where “and” joins values, the source holds several entries; their conditions need not be identical. Identical values can stand only once. Toxic doses and inconclusive results are not listed. Rule as the data show it: active = T/C of 150% or more; inactive = T/C below 125%.

System: L1210 leukemia ip in BDF1 mice, survival T/C
Assay: NCI In Vivo Anticancer Drug Screen. Data for tumor model L1210 Leukemia (intraperitoneal) in B6D2F1 (BDF1) mice
Conditions: endpoint: mean survival time, higher = longer survival
How it was run: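 Tumor cells were implanted, animals were treated, and survival was followed. The result divides the treated measurement by the vehicle-control measurement.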

[1] = dose: 50.0 mg/kg/injection, schedule: Q01DX001 (ip), vehicle: saline
[2] = dose: 100.0 mg/kg/injection, schedule: Q01DX001 (ip), vehicle: saline
[3] = dose: 100.0 mg/kg/injection, schedule: Q01DX009 (ip), vehicle: Klucel (hydroxypropylcellulose) (HPC)
[4] = dose: 200.0 mg/kg/injection, schedule: Q01DX001 (ip), vehicle: saline
[5] = dose: 200.0 mg/kg/injection, schedule: Q01DX009 (ip), vehicle: Klucel (hydroxypropylcellulose) (HPC)
[6] = dose: 400.0 mg/kg/injection, schedule: Q01DX001 (ip), vehicle: saline
[7] = dose: 100.0 mg/kg/injection, schedule: Q04DX003 (ip), vehicle: saline with Tween-80
[8] = dose: 200.0 mg/kg/injection, schedule: Q04DX003 (ip), vehicle: saline with Tween-80
[9] = dose: 400.0 mg/kg/injection, schedule: Q04DX003 (ip), vehicle: saline with Tween-80
[10] = dose: 100.0 mg/kg/injection, schedule: Q01DX001 (ip), vehicle: Klucel (hydroxypropylcellulose) (HPC)
[11] = dose: 200.0 mg/kg/injection, schedule: Q01DX001 (ip), vehicle: Klucel (hydroxypropylcellulose) (HPC)
[12] = dose: 400.0 mg/kg/injection, schedule: Q01DX001 (ip), vehicle: Klucel (hydroxypropylcellulose) (HPC)
[13] = dose: 400.0 mg/kg/injection, schedule: Q01DX009 (ip), vehicle: Klucel (hydroxypropylcellulose) (HPC)
[14] = dose: 100.0 mg/kg/injection, schedule: Q04DX002 (ip), vehicle: Klucel (hydroxypropylcellulose) (HPC)
[15] = dose: 200.0 mg/kg/injection, schedule: Q04DX002 (ip), vehicle: Klucel (hydroxypropylcellulose) (HPC)
[16] = dose: 400.0 mg/kg/injection, schedule: Q04DX002 (ip), vehicle: Klucel (hydroxypropylcellulose) (HPC)
[17] = dose: 100.0 mg/kg/injection, schedule: Q04DX002 (ip), vehicle: saline
[18] = dose: 200.0 mg/kg/injection, schedule: Q04DX002 (ip), vehicle: saline
[19] = dose: 100.0 mg/kg/injection, schedule: Q01DX001 (ip), vehicle: carboxymethylcellulose (CMC)
[20] = dose: 200.0 mg/kg/injection, schedule: Q01DX001 (ip), vehicle: carboxymethylcellulose (CMC)
[21] = dose: 400.0 mg/kg/injection, schedule: Q01DX001 (ip), vehicle: carboxymethylcellulose (CMC)

Measured: T/C

C1CN=C2CCCN2C1
inactive: dose: 18.75 mg/kg/injection, schedule: Q01DX009 (ip), vehicle: saline 100 % of control | dose: 37.5 mg/kg/injection, schedule: Q01DX009 (ip), vehicle: saline 97 % of control

O=c1cc(CO)[nH]c(=O)[nH]1
inactive: [1] 104 % of control | dose: 50.0 mg/kg/injection, schedule: Q01DX009 (ip), vehicle: Klucel (hydroxypropylcellulose) (HPC) 94 % of control | [2] 102 % of control | [3] 90 % of control | [4] 98 % of control | [5] 97 % of control | [6] 98 % of control

NCc1c(Cl)c(Cl)c(CN)c(Cl)c1Cl
inactive: dose: 50.0 mg/kg/injection, schedule: Q01DX009 (ip), vehicle: saline with Tween-80 96 % of control | dose: 50.0 mg/kg/injection, schedule: Q04DX003 (ip), vehicle: saline with Tween-80 92 % of control | dose: 100.0 mg/kg/injection, schedule: Q01DX009 (ip), vehicle: saline with Tween-80 94 % of control | [7] 92 % of control | dose: 200.0 mg/kg/injection, schedule: Q01DX009 (ip), vehicle: saline with Tween-80 88 % of control | [8] 105 % of control

Nc1nc2c(c(=O)[nH]1)NC(CCNc1ccc(C(=O)NC(CCC(=O)O)C(=O)O)cc1)CN2 (stereo unspecified)
inactive: dose: 50.0 mg/kg/injection, schedule: Q01DX001 (ip), vehicle: other 104 % of control | [1] 113 % of control | dose: 100.0 mg/kg/injection, schedule: Q01DX001 (ip), vehicle: other 101 % of control | [2] 116 % of control | dose: 108.0 mg/kg/injection, schedule: Q01DX009 (ip), vehicle: other 119 % of control | dose: 200.0 mg/kg/injection, schedule: Q01DX001 (ip), vehicle: other 110 % of control | [4] 107 % of control | dose: 300.0 mg/kg/injection, schedule: Q01DX009 (ip), vehicle: other 116 % of control | dose: 400.0 mg/kg/injection, schedule: Q01DX001 (ip), vehicle: other 110 % of control | [6] 115 % of control | dose: 500.0 mg/kg/injection, schedule: Q01DX009 (ip), vehicle: other 112 % of control

CCN(C(=O)Nc1ccc(Cl)cc1)c1ccccc1
inactive: [7] 96 % of control | [8] 95 % of control | [9] 86 % of control

ClC(Cl)(c1ccccc1)C1(c2ccccc2)CC1
inactive: dose: 75.0 mg/kg/injection, schedule: Q01DX001 (ip), vehicle: acetone 107 % of control | dose: 150.0 mg/kg/injection, schedule: Q01DX001 (ip), vehicle: acetone 109 % of control

CC(C)(C)CC(C)(C)c1ccc(OCCOc2ccc(C(=O)Nc3ccc(NC(=O)c4ccc5ccccc5c4O)cc3)cc2)cc1
inactive: [7] 105 % of control | [8] 90 % of control | [9] 90 % of control

C=NN=C(N)N
inactive: dose: 0.38 mg/kg/injection, schedule: Q01DX Z (ip), vehicle: saline 100 % of control | dose: 0.75 mg/kg/injection, schedule: Q01DX Z (ip), vehicle: saline 92 % of control | dose: 3.0 mg/kg/injection, schedule: Q01DX Z (ip), vehicle: saline 87 % of control | dose: 6.0 mg/kg/injection, schedule: Q01DX Z (ip), vehicle: saline 106 % of control | dose: 12.0 mg/kg/injection, schedule: Q01DX Z (ip), vehicle: saline 102 % of control | dose: 15.0 mg/kg/injection, schedule: Q01DX Z (ip), vehicle: saline 100 % of control | dose: 15.0 mg/kg/injection, schedule: Q01DX Z (oral), vehicle: saline 86 % of control | dose: 30.0 mg/kg/injection, schedule: Q01DX Z (ip), vehicle: saline 105 % of control | dose: 30.0 mg/kg/injection, schedule: Q01DX Z (oral), vehicle: saline 92 % of control

O=C(O)C1=CC2CC1C1CC(C(=O)O)CC21 (stereo unspecified)
inactive: [10] 105 % of control | [11] 91 % of control | [12] 103 % of control

C=CCO[Si](C=C)(OCC=C)OCC=C
inactive: dose: 75.0 mg/kg/injection, schedule: Q01DX001 (ip), vehicle: other 116 % of control | dose: 150.0 mg/kg/injection, schedule: Q01DX001 (ip), vehicle: other 95 % of control | dose: 300.0 mg/kg/injection, schedule: Q01DX001 (ip), vehicle: other 94 % of control

CCSC(=S)n1c2ccccc2c2ccccc21
inactive: [10] 98 % of control | [3] 101 % of control | [11] 101 % of control | [5] 96 % of control | [12] 92 % of control | [13] 101 % of control

C=COCCN1C(=O)c2ccccc2C1=O
inactive: [14] 102 % of control | [15] 120 % of control | [16] 106 % of control

COc1cc(Cl)ccc1NC(=O)Oc1ccc2ccccc2c1
inactive: [14] 108 % of control | [15] 90 % of control | [16] 104 % of control

C=C1C(=O)OC2C1CCC1(C)CCCC(=C)C21O (stereo unspecified)
inactive: dose: 25.0 mg/kg/injection, schedule: Q04DX002 (ip), vehicle: saline 105 % of control | dose: 50.0 mg/kg/injection, schedule: Q04DX002 (ip), vehicle: saline 102 % of control | [17] 93 % of control and 97 % of control | [18] 90 % of control

CC(=O)c1ccc2c(c1)CCN2
inactive: [3] 91 % of control | [5] 91 % of control

CCCCCCCCCCCC(=O)N1CCCCC1
inactive: dose: 100.0 mg/kg/injection, schedule: Q01DX001 (ip), vehicle: saline with Tween-80 101 % of control | dose: 200.0 mg/kg/injection, schedule: Q01DX001 (ip), vehicle: saline with Tween-80 97 % of control | dose: 400.0 mg/kg/injection, schedule: Q01DX001 (ip), vehicle: saline with Tween-80 89 % of control

CCOC(=O)n1cccc(C)c1=N
inactive: [19] 102 % of control | [20] 100 % of control | [21] 102 % of control

O=[N+]([O-])c1ccc(C2N=C(c3ccccc3)CS2(=O)=O)cc1 (stereo unspecified)
inactive: dose: 100.0 mg/kg/injection, schedule: Q04DX003 (ip), vehicle: saline 97 % of control | dose: 200.0 mg/kg/injection, schedule: Q04DX003 (ip), vehicle: saline 95 % of control | dose: 400.0 mg/kg/injection, schedule: Q04DX003 (ip), vehicle: saline 93 % of control

O=C1COc2ccc(F)cc2N1
inactive: [14] 98 % of control | [15] 102 % of control | [16] 109 % of control

C=CCc1cc(C)ccc1OC(=O)c1cc([N+](=O)[O-])cc([N+](=O)[O-])c1
inactive: [2] 102 % of control | [4] 98 % of control | [6] 98 % of control

C(=N\c1oc(-c2ccccc2)nc1SCc1ccccc1)/c1ccccc1
inactive: [14] 96 % of control | [15] 96 % of control | [16] 120 % of control

CCCCC#CC(=O)OCC
inactive: [17] 97 % of control | [18] 97 % of control | dose: 400.0 mg/kg/injection, schedule: Q04DX002 (ip), vehicle: saline 112 % of control

Cc1ccc(S(=O)(=O)F)cc1C(=O)NCc1ccc(OCc2nc(N)nc(N)c2-c2ccc(Cl)c(Cl)c2)cc1
inactive: dose: 32.5 mg/kg/injection, schedule: Q01DX001 (ip), vehicle: Klucel (hydroxypropylcellulose) (HPC) 96 % of control | dose: 65.0 mg/kg/injection, schedule: Q01DX001 (ip), vehicle: Klucel (hydroxypropylcellulose) (HPC) 96 % of control | dose: 130.0 mg/kg/injection, schedule: Q01DX001 (ip), vehicle: Klucel (hydroxypropylcellulose) (HPC) 96 % of control

Nc1ccccc1C1OCCO1
inactive: dose: 50.0 mg/kg/injection, schedule: Q01DX001 (ip), vehicle: carboxymethylcellulose (CMC) 95 % of control | [19] 95 % of control | [20] 95 % of control | [21] 101 % of control

Nc1nc(-c2ccccc2)[nH]c(=O)n1
inactive: [3] 100 % of control | [5] 91 % of control | [13] 93 % of control

Clc1ccc2c(c1)Sc1ccc(Cl)cc1S2
inactive: dose: 100.0 mg/kg/injection, schedule: Q04DX002 (ip), vehicle: saline with Tween-80 101 % of control | dose: 200.0 mg/kg/injection, schedule: Q04DX002 (ip), vehicle: saline with Tween-80 101 % of control | dose: 400.0 mg/kg/injection, schedule: Q04DX002 (ip), vehicle: saline with Tween-80 97 % of control
